From US20230151363A1, “MODIFIED SHORT-INTERFERING RNA COMPOSITIONS AND THEIR USE IN THE TREATMENT OF CANCER” (THE RESEARCH FOUNDATION FOR THE STATE UNIVERSITY OF NEW YORK, priority 2020, published 2023)

Tested on: BCL-2 protein
Experiment: Western immunoblot analysis of BCL-2 protein
Format: cell-based, human
Details: cancer cells treated with 5-FU alone
Description: Western immunoblot analysis. Twenty-four hours prior to transfection 1×10^5 cells were plated in 6 well plates. Cells were either transfected using Oligofectamine (Thermo Fischer) or no transfection vehicle, with 50 nM control (scrambled) siRNA (Thermo Fischer), unmodified siBCL2 or an exemplary modified siBCL2 siRNA. Three days following transfection protein was collected in RIPA buffer with protease inhibitor (Sigma). Equal amounts of protein (15 μg), were separated on 12% sodium dodecyl sulfate-polyacrylamide gels as described in Laemmli U K. Nature. 1970; 227(5259) pp. 680-685, the entire contents of which is incorporated herein by reference. Proteins were probed with anti-BCL2 antibody (1:1000) (Thermo Fischer) and anti-GAPDH antibody (1:100000) (Santa Cruz). Horseradish peroxidase conjugated secondary antibodies against mouse or rabbit (1:5000, Santa Cruz Biotech Inc.) were added. Protein bands were then visualized with autoradiography film using SuperSignal West Pico Chemiluminescent Substrate (Thermo Fischer).

**Q.** How did the “BCL-2 expression (Western blot)” value turn out when `O=c1[nH]cc(F)c(=O)[nH]1` [5-FU, 5-fluoro-1H-pyrimidine-2,4-dione] was run?
**A.** does not result in reduction of BCL-2 expression
